According to US8080529B2, “Macrolides with anti-inflammatory activity” (Glaxo Group Limited, priority 2005, dated 2011):
Read-outs that look alike come from different tables or passages of the source.

What was measured:
Type in all cases: cell-based
[1] = tested on: TNF-α; experiment: Inhibition of TNF-α production by stimulated human peripheral blood leukocytes in vitro; conditions: Homo sapiens, Leukocyte, read-out: Percentage of inhibition of TNF-α production
Protocol: (§1) Test substances used in in vitro experiments were dissolved in dimethyl sulfoxide (DMSO) (Kemika, Croatia) at concentrations of 50 mM and 10 mM, and were further diluted to final concentrations of 50 μM and 10 μM in 1 mL Dulbecco's modified Eagle medium (DMEM) supplemented with 1% heat inactivated fetal bovine serum (FBS), 1% L-glutamine, 50 U/ml penicillin, 50 μg/ml streptomycin and 2.5 μg/mL Fungizone (amphotericin B). Media and all media supplements were purchased from Gibco, Australia, except the FBS was purchased from Sigma, USA.
(§2) Peripheral blood leukocytes (PBL) were obtained from venous blood of healthy volunteers by sedimentation on 2% dextran T-500 (Amersham Biosciences, USA) and subsequent centrifugations of leukocyte rich plasma.
(§3) Peripheral blood leukocytes (PBL), isolated as described above, were seeded in a 48-well plate at a concentration of 3 to 5×10^6 cell per well in culture medium consisting of RPMI 1640 medium (Institute of Immunology, Croatia) supplemented with 10% heat-inactivated fetal calf serum (FCS, Biowhittaker, USA), 100 U/ml penicillin (Gibco, Australia), 100 μg/ml streptomycin (Gibco, Australia) and 2 mM L-glutamine (Gibco, Australia), and preincubated with the test compounds for 2 h at 37° C., in an atmosphere of 5% CO2, and 90% humidity. Then, stimuli (Sigma, USA) were added to a final concentration of 2 μg/mL lipopolysaccharide (LPS), 1 μg/mL phorbol 12-myristate 13-acetate (PMA) or 120 μg/mL zymosan. Samples were incubated overnight under conditions described above. At the end of incubation, the supernatants were transferred to eppendorf tubes and centrifuged for 10 min at 1500×g. Concentrations of human TNF-α, IL-1β, IL-6 and IL-8 were determined in cell supernatants by sandwich ELISA, using capture and detection antibodies (R&D Systems, Minneapolis, Minn.) according to the manufacturer's recommendations.
(§4) Inhibition (as percentage) was calculated using the following formula: % inhibition=(1−concentration of cytokines in sample/concentration of cytokines in positive control)×100.
(§5) The positive control refers to LPS-, PMA- or zymosan-stimulated samples that were not preincubated with test compounds.

[2] = tested on: IL-1α; experiment: Inhibition of IL-1 production by stimulated human peripheral blood leukocytes in vitro; conditions: Homo sapiens, Leukocyte, read-out: Percentage of inhibition of IL-1α production
[3] = tested on: IL-6; experiment: Inhibition of IL-6 production by stimulated human peripheral blood leukocytes in vitro; conditions: Homo sapiens, Leukocyte, read-out: Percentage of inhibition of IL-6 production
Protocol: as §1, §2, §3, §4, §5

[4] = tested on: IL-8; experiment: Inhibition of IL-8 production by stimulated human peripheral blood leukocytes in vitro; conditions: Homo sapiens, Leukocyte, read-out: Percentage of inhibition of IL-8 production
Protocol: as §1, §2, §3, §4, §5

[5] = tested on: Hep G2; experiment: Cytotoxicity assay (MTT), Hep G2 cell line; conditions: 24 h
Protocol: (§6) To determine whether the anti-inflammatory activity of the test compounds was due to observed inhibition of cytokine production and inhibition of proliferation in vitro, and was not a consequence of cellular cytotoxicity, measurement of succinate dehydrogenase activity in living cells was performed. Cells were cultured for 24 h in RPM medium as described above at 37° C. the presence of the test compounds at concentrations of 50 μM and 12.5 μM. MTT [3-(4,5-dimethylthiazole-2-yl)-2,5-diphenyl tetrazolium bromide] (Promega, USA), a detection reagent, was then added and the cultures were incubated for 0.5-2 h. The amount of MTT-Formazan produced was determined using a spectrophotometer at 490 nm (Mosmann, J. Immunol. Methods, 1983, 65: 55-63).
(§7) The percentage of inhibition of cell growth was calculated using the following formula: % inhibition of cell growth=[…].

[6] = tested on: A549; experiment: Cytotoxicity assay (MTT), A549 cell line; conditions: 24 h
Protocol: as §6, §7

Structure (SMILES) | inhibition at 10 µM ([1]; LPS-stimulated PBL) | inhibition at 10 µM ([1]; PMA-stimulated PBL) | inhibition at 10 µM ([1]; zymosan-stimulated PBL) | inhibition at 50 µM ([1]; LPS-stimulated PBL) | inhibition at 50 µM ([1]; PMA-stimulated PBL) | inhibition at 50 µM ([1]; zymosan-stimulated PBL) | inhibition at 10 µM ([2]; LPS-stimulated PBL) | inhibition at 10 µM ([2]; PMA-stimulated PBL) | inhibition at 10 µM ([2]; zymosan-stimulated PBL) | inhibition at 50 µM ([2]; LPS-stimulated PBL) | inhibition at 50 µM ([2]; PMA-stimulated PBL) | inhibition at 50 µM ([2]; zymosan-stimulated PBL) | inhibition at 10 µM ([3]; LPS-stimulated PBL) | inhibition at 10 µM ([3]; PMA-stimulated PBL) | inhibition at 10 µM ([3]; zymosan-stimulated PBL) | inhibition at 50 µM ([3]; LPS-stimulated PBL) | inhibition at 50 µM ([3]; PMA-stimulated PBL) | inhibition at 50 µM ([3]; zymosan-stimulated PBL) | inhibition at 10 µM ([4]; LPS-stimulated PBL) | inhibition at 10 µM ([4]; PMA-stimulated PBL) | further results
CC[C@H]1OC(=O)[C@H](C)[C@@H](O[C@H]2C[C@@](C)(OC)[C@@H](OC(=O)CCN3CCN(CCOCCO)CC3)[C@H](C)O2)[C@H](C)[C@@H](O[C@@H]2O[C@H](C)C[C@H](N(C)C)[C@H]2O)[C@](C)(OC)C[C@@H](C)C(=O)N[C@H](C)[C@@H](O)[C@]1(C)O [Example 18] | 9% | 38% | 21% | 12% | 57% | 30% | 16% | 34% | 51% | 45% | 68% | 90% | 10% | 33% | 34% | 23% | 61% | 63% | 6% | 7% | inhibition at 10 µM ([4]; zymosan-stimulated PBL): 25%; inhibition at 50 µM ([4]; LPS-stimulated PBL): 0%; inhibition at 50 µM ([4]; PMA-stimulated PBL): 0%; inhibition at 50 µM ([4]; zymosan-stimulated PBL): 22%; Percentage of inhibition of cell growth ([5]; 12.5 μM): 5%; Percentage of inhibition of cell growth ([5]; 50 μM): 3%; Percentage of inhibition of cell growth ([6]; 12.5 μM): 0%; Percentage of inhibition of cell growth ([6]; 50 μM): 0%
CC[C@H]1OC(=O)[C@H](C)[C@@H](O[C@H]2C[C@@](C)(OC)[C@@H](OC(=O)CCN3CCN(CCCN4CCCCC4)CC3)[C@H](C)O2)[C@H](C)[C@@H](O[C@@H]2O[C@H](C)C[C@H](N(C)C)[C@H]2O)[C@](C)(OC)C[C@@H](C)C(=O)N[C@H](C)[C@@H](O)[C@]1(C)O [Example 22] | 0% | 0% | 0% | 23% | 55% | 35% | 5% | 14% | 57% | 46% | 56% | 76% | 3% | 16% | 28% | 28% | 60% | 51% | 0% | 0% | inhibition at 10 µM ([4]; zymosan-stimulated PBL): 10%; inhibition at 50 µM ([4]; LPS-stimulated PBL): 5%; inhibition at 50 µM ([4]; PMA-stimulated PBL): 15%; inhibition at 50 µM ([4]; zymosan-stimulated PBL): 30%; Percentage of inhibition of cell growth ([5]; 12.5 μM): 3%; Percentage of inhibition of cell growth ([5]; 50 μM): 1%; Percentage of inhibition of cell growth ([6]; 12.5 μM): 5%; Percentage of inhibition of cell growth ([6]; 50 μM): 0%
CC[C@H]1OC(=O)[C@H](C)[C@@H](O[C@H]2C[C@@](C)(OC)[C@@H](OC(=O)CCNC(C)C)[C@H](C)O2)[C@H](C)[C@@H](O[C@@H]2O[C@H](C)C[C@H](N(C)C)[C@H]2O)[C@](C)(OC)C[C@@H](C)C(=O)N[C@H](C)[C@@H](O)[C@]1(C)O [Example 23] | 0% | 5% | 0% | 19% | 54% | 37% | 2% | 12% | 67% | 39% | 69% | 75% | 0% | 20% | 35% | 14% | 59% | 45% | 0% | 0% | inhibition at 10 µM ([4]; zymosan-stimulated PBL): 22%; inhibition at 50 µM ([4]; LPS-stimulated PBL): 10%; inhibition at 50 µM ([4]; PMA-stimulated PBL): 15%; inhibition at 50 µM ([4]; zymosan-stimulated PBL): 43%; Percentage of inhibition of cell growth ([5]; 12.5 μM): 6%; Percentage of inhibition of cell growth ([5]; 50 μM): 5%; Percentage of inhibition of cell growth ([6]; 12.5 μM): 0%; Percentage of inhibition of cell growth ([6]; 50 μM): 0%
CC[C@H]1OC(=O)[C@H](C)[C@@H](O[C@H]2C[C@@](C)(OC)[C@@H](OC(=O)CCN(C)C3CCCCC3)[C@H](C)O2)[C@H](C)[C@@H](O[C@@H]2O[C@H](C)C[C@H](N(C)C)[C@H]2O)[C@](C)(OC)C[C@@H](C)C(=O)N[C@H](C)[C@@H](O)[C@]1(C)O [Example 25] | 0% | 41% | 19% | 71% | 91% | 88% | 22% | 58% | 82% | 61% | 86% | 93% | 4% | 51% | 51% | 62% | 87% | 86% | 0% | 0% | inhibition at 10 µM ([4]; zymosan-stimulated PBL): 17%; inhibition at 50 µM ([4]; LPS-stimulated PBL): 45%; inhibition at 50 µM ([4]; PMA-stimulated PBL): 34%; inhibition at 50 µM ([4]; zymosan-stimulated PBL): 63%; Percentage of inhibition of cell growth ([5]; 12.5 μM): 10%; Percentage of inhibition of cell growth ([5]; 50 μM): 8%; Percentage of inhibition of cell growth ([6]; 12.5 μM): 8%; Percentage of inhibition of cell growth ([6]; 50 μM): 4%
